The assay concerns the target T1, Catenin beta-1 (Homo sapiens) (UniProt P35222).
T1 sequence (whole entry): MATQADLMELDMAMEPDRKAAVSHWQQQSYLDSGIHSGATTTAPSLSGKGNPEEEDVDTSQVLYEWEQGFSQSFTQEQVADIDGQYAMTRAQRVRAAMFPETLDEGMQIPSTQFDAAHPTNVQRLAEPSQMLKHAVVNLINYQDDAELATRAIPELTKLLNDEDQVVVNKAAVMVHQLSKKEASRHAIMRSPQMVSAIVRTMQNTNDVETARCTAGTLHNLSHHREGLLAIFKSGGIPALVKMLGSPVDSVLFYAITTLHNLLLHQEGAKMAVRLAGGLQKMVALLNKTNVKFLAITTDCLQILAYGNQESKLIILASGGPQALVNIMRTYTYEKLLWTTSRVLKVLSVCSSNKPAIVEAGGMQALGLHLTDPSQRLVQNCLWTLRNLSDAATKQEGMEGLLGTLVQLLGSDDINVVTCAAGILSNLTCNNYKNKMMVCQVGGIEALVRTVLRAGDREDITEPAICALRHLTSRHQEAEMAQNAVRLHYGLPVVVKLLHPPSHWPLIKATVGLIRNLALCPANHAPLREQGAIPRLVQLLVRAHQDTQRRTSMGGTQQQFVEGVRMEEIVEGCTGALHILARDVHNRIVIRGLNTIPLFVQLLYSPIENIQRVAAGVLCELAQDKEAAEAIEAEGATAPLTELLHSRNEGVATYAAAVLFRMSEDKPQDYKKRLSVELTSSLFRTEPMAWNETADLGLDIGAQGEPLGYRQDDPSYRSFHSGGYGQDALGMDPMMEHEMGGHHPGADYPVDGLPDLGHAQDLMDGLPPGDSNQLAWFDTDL
The assay is described as follows: Activity against beta […]/Tcf4 complex by PPI assay.

Active and inactive are the calls of the source. The calls are words filed in the database; no cut-off is given here.

Regarding `CC[C@@]1(C)CCC[C@]2(C)[C@H]3C[C@H](OC(C)=O)[C@]4(C)[C@@H](O)C(C(C)=O)=CC[C@H]4[C@]3(C)CC[C@@H]12`, the result was inactive. With `CC[C@@]1(C)CCC[C@]2(C)[C@H]3C[C@H](OC(C)=O)[C@]4(C)C5=C(C(=O)C[C@H]4[C@]3(C)CC[C@@H]12)C(C)OC5=O` (some centres not stated) the entry was “inactive”; with `CCC(O)CC(=O)O[C@@H]1C[C@H]2[C@]3(C)CC[C@H]4[C@@](C)(CC)CCC[C@]4(C)[C@H]3C[C@H](OC(C)=O)[C@]2(C)[C@@H](C(=O)O)[C@@H]1C(C)=O` (some centres not stated), “inactive”; with `CC[C@@]1(C)CCC[C@]2(C)[C@H]3C[C@H](OC(C)=O)[C@@]4(C)C(=CC(=O)C5=C4C(=O)OC5(C)O)[C@]3(C)CC[C@@H]12` (some centres not stated), “inactive”.

As for `CC[C@@]1(C)CCC[C@]2(C)[C@H]3C[C@H](OC(C)=O)[C@]45C[C@@H](O)[C@H]4C(C(C)=O)=CC[C@H]5[C@]3(C)CC[C@@H]12`, the outcome was inactive. For `CC[C@@]1(C)CCC[C@]2(C)[C@H]3C[C@H](OC(C)=O)[C@]45C[C@H](O)[C@H]4C(C(C)=O)=CC[C@H]5[C@]3(C)CC[C@@H]12`, the outcome was inactive. With `CC[C@@]1(C)CCC[C@]2(C)[C@H]3C[C@H](OC(C)=O)[C@]4(C)[C@@H](C(=O)O)C(C(C)=O)=CC[C@H]4[C@]3(C)CC[C@@H]12` the entry was “inactive”.

Values taken from ChEMBL document CHEMBL1139883, “Additional scalarane sesterterpenes from the sponge Phyllospongia papyracea” (J Nat Prod, 2007).
